Series [1] is described as follows: Particle size analysis of Compound A nanosuspension / microsuspension formulations. The class given is physicochemical. Particulars: jet mill feed pressure 4.5 bar, milling pressure 5.0 bar, before ball milling. As for the experimental part:
Milling was performed in a high energy ball mill with suitable sized-spherical, polymeric or Zirconium oxide beads. Compound A and excipient(s) as indicated in Table 1 were combined in deionized water per the indicated batch size and transferred to the milling chamber. Nanosuspensions A through D were generated utilizing process conditions denoted in Table 2.
Compound A was first mechanically jet-milled to reduce initial particle size prior to ball milling. The jet mill feed pressure was 4.5 bar and milling pressure was 5.0 bar. The resulting particle size of jet milled Compound A was 5-6 microns […]. […]
Compound A in a concentration range of between about 20 mg/mL to about 100 mg/mL (2-10% w/w), along with parenteral grade olive oil and 1% sorbitan monooleate [SPAN®80], was nano-milled using a high energy mill at 3000 rpm with 0.3 mm beads or 0.65 mm beads to produce microsuspensions. […] Performance of an amorphous microsuspension of Compound A was evaluated in Male SD rats. […] At each time point, approximately 0.2 mL blood was collected via jugular vein and analyzed by LC-MS/MS for mean plasma concentration of Compound A (FIG. 4). Pharmacokinetics determined that a target Cmin of 3 ng/mL was desired, which is denoted by the black dashed line in FIG. 4. […]

For series [2], the system named is SYO-1 human biphasic synovial sarcoma tumor cells. The experiment in a line: Nanosuspension mouse efficacy study, SYO-1 xenograft tumor volume. The following applies: SYO-1 xenograft mice, Cohorts 2-8, IV, SC, IM, 1-200 mg/kg, over 4 weeks, FIG. 3B. The class given is in vivo. The protocol: (§1) Each mouse was inoculated subcutaneously on the right flank with a single cell suspension of SYO-1 human biphasic synovial sarcoma tumor cells (5×10^6) in 100 μL DMEM with 10% FBS for the tumor development. Treatment (Table 6) was started when mean tumor volume reached about 100-150 mm^3 for the efficacy cohorts. Based on the tumor volume, mice were randomly assigned to respective groups using a computer-generated randomization procedure. Corresponding formulations are in Table 6. For each dosing cohort, dosing volume was calculated based on concentration of the formulation and dose volume (ml/kg). Vehicle for IV was 20% HP-β-CD in 5 mM citrate buffer of pH 3, with adjustment to a final PH of 5. Body weight of all animals was measured and recorded twice a week throughout the study. The measurement of tumor size was conducted twice a week with a caliper and recorded. Tumor volume was used for calculation of tumor growth inhibition (TGI) value of the tumors in the treated and the control cohorts, respectively, on a given day after tumor inoculation.
64 plasma samples were collected at two time points (672 h and 676 h) from efficacy study cohorts. 64 tumor samples were collected at two time points (672 h and 676 h) from efficacy cohorts 1-8 and cut into 3 pieces: one piece for PK analysis, one piece for WB analysis (BRD9), and one piece snap frozen for further analysis (n=4). […]

Series [3] is described as follows: Body weight / tolerability in mouse efficacy study. In kind it is in vivo. The following applies: tumor-bearing mice, all doses and all modes of administration, 4 weeks, FIG. 3A. The protocol: as §1

As for `COc1cc(-c2cn(C)c(=O)c3cnc(N4CCC4)cc23)cc(OC)c1CN1CCC(CN2CCC3(CC2)CN(c2ccc4c(c2)C(=O)N(C2CCC(=O)NC2=O)C4)C3)CC1` (stereo not drawn) [Compound A, 3-(6-(7-((1-(4-(6-(azetidin-1-yl)-2-methyl-1-oxo-1,2-dihydro-2,7-naphthyridin-4-yl)-2,6-dimethoxybenzyl)piperidin-4-yl)methyl)-2,7-diazaspiro[3.5]nonan-2-yl)-1-oxoisoindolin-2-yl)piperidine-2,6-dione], the “particle size (D50) of jet milled Compound A” value in series [1] is on record as 5-6 microns. For the same compound, in series [2], the “tumor growth (tumor volume) versus Vehicle control” value is on record as “slowed tumor growth significantly”. Moreover, the body weight result in series [3] was “remaining fairly constant”.

The values are drawn from patent publication US20260224559A1, “FORMULATIONS FOR TREATING CANCER” (FOGHORN THERAPEUTICS INC., priority 2023, published 2026).
